Assay results reported in US20180251431A1 (VERTEX PHARMACEUTICALS INCORPORATED, priority 2016, published 2018).

What was measured:
ALD patient fibroblasts = assay: Reduction in C26:0 LPC in ALD patient fibroblasts in vitro; format: cell-based, human; conditions: Patient Fibroblast (CALD 1), half maximal reduction in C26:0 LPC, each number a separate measurement
Protocol: Lysophosphatidylcholine (LPC) VLCFA were generated from straight chain VLCFA (SC-VLCFA) and were used clinically for newborn screening (Vogel et al., Mol. Genet. Metab. (2015) 114(4):599-603). In vitro efficacy studies were performed by measuring LPC VLCFA level (measured as LPC synthesis) in various cell lines, specifically in 1) human HEK cells, 2) patient derived cells, and 3) human microglia, which are disease relevant CNS cells. Compound 87's dose response relationships and IC50 values were measured in HEK cells, primary patient fibroblasts, immortalized patient lymphocytes, and a human microglial cell line. […]
Primary patient fibroblasts were obtained from Coriell Institute for Medical Research. […] The plate was sealed with a plate tape and put at −80° C. for further VLCFA extraction and VLCFA quantitation on LC-MS, as described below.
VLCFA Extraction and Quantitation on LCMS:
Treated cells were transferred to a polypropylene v-bottom plate and then centrifuged at 1690×g for 10 minutes. […] The plates were then sealed with pierceable capmats (Micronic MP53017) and stored at −20° C. until further analyzed using UPHLC/Mass Spectrometry Readout, as described above in example 2.1, which measured the integration of ^13C into lysophosphatidylcholine (LPC) indicated fatty acid elongation. […]

[1] = Metabolic intrinsic clearance in human hepatocytes; format: in vitro ADME; conditions: cryopreserved hepatocytes in suspension, pH 7.5, 0.5 million cells/mL, incubation for 4 hours
Protocol: The metabolic intrinsic clearance (CLint) of Compound 87 was determined in human, monkey, dog, rat, and mouse hepatocytes. Cryopreserved human hepatocytes (Lot Hue50c), monkey hepatocytes (cynomolgus; Lot Cy328), dog hepatocytes (beagle, Lot Db235), rat hepatocytes (Sprague Dawley; NNH), and mouse hepatocytes (CD-1; Lot Mc522) were obtained from ThermoFisher (Paisley, UK). In separate experiments, compound 87 (1 μM) was incubated with hepatocytes from each species (0.5 million cells/mL, suspension) in Dulbecco's Modified Eagle's Medium (DMEM) supplemented with 4-(2-Hydroxyethyl)piperazine-1-ethanesulfonic acid (HEPES, 9 mM) and fructose (2.2 mM) (pH 7.5). Samples were quenched with acetonitrile and analyzed by LC-MS/MS. The mean CLint for Compound 87 in human, monkey, dog, rat, and mouse hepatocytes after incubation for 4 hours was determined to be ≤2.5, ≤2.5, 7.2, 23.6 and 10.7 μL/min/million cells. Based on these date, Compound 87 was low to moderately metabolized in hepatocytes in mouse, rat, dog, monkey, and human, and the rank order of stability at […] was approximately human>monkey>dog>mouse>rat. […] The metabolic stability of Compound 87 was not expected.

hepatocyte CLint at 1 μM [1]: ≤ 2.5 µL/min/1e6 cells
Structure (SMILES): O=C(Nc1ccn(-c2ccnc(F)c2)n1)C1(c2ccccc2F)CC1 [Compound 87, 1-(2-fluorophenyl)-N-[1-(2-fluoro-4-pyridyl)pyrazol-3-yl]cyclopropanecarboxamide]
IC50 (ALD patient fibroblasts; Homo sapiens, Fibroblast): 17 nM
IC50 (ALD patient fibroblasts): 23 nM
